Assays:
Assay type in all cases: ADME
[1] = Minimal lethal dose in mice causing gradual progressive onset of severe scratching of face and body, spasms, paralysis (30 min after injection), severe eye damage, and death occurring within 24 h; range: 0.38-0.77; settings: mouse, in vivo
[2] = Minimal lethal dose in mice causing gradual progressive onset of severe scratching of face and body, spasms, paralysis, severe eye damage, and death; range: 1.5-3.1; settings: mouse, in vivo
[3] = Minimal lethal dose in mice showing no adverse symptoms seen; settings: mouse, in vivo
[4] = Minimal lethal dose in mice causing no scratching or eye damage, but frenetic jumping, severe spasms, and ultimately paralysis; if death did not occur within 30 min, total recovery was noted; range: 1.5-3.1; settings: mouse, in vivo, 0.5 h
[5] = Minimal lethal dose in mice causing gradual progressive onset of severe scratching of face and body, spasms, paralysis, severe eye damage, and death; range: 0.2-0.4; settings: mouse, in vivo

With CO[C@@H]1[C@H](O[C@@H]2[C@@H](OC)[C@H](O[C@H]3C[C@H]4CC(=O)[C@@]5(O)O[C@H](C[C@H]5C)C(C)(C)[C@@H](/C=C/C#C/C=C/C(C)C)OC(=O)C[C@H](O4)[C@@H]3C)OC[C@H]2OC)O[C@@H](C)[C@@H](O)[C@@H]1OC the MLD [1] was 0.38 mg/kg.

In the case of CO[C@@H]1[C@H](O[C@@H]2[C@@H](OC)[C@H](O[C@H]3C[C@H]4CC(=O)[C@@]5(O)O[C@H](C[C@H]5C)C(C)(C)[C@@H](/C=C/C=C/C(C)C)OC(=O)C[C@H](O4)[C@@H]3C)OC[C@H]2OC)O[C@@H](C)[C@@H](O)[C@@H]1OC, the MLD [2] was 3.1 mg/kg.

For COC1C(O)C(C)OC(O[C@H]2C(OC)COC(O[C@H]3C[C@H]4CC(=O)[C@@]5(O)O[C@H](C[C@H]5C)C(C)(C)[C@@H](/C=C/c5ccccc5)OC(=O)C[C@H](O4)[C@@H]3C)[C@@H]2OC)[C@H]1OC (stereo partly drawn), the MLD [3] was > 13 mg/kg.

Compound CC(C)/C=C/C=C/C=C/[C@H]1OC(=O)C[C@@H]2O[C@H](CC(=O)[C@@]3(O)O[C@H](C[C@H]3C)C1(C)C)C[C@H](O)[C@H]2C has an MLD [4] of 1.5 mg/kg.

With CO[C@@H]1[C@H](O[C@@H]2[C@@H](OC)[C@H](O[C@H]3C[C@H]4CC(=O)[C@@]5(O)O[C@H](C[C@H]5C)C(C)(C)[C@@H](/C=C/C=C/C5CCCCC5)OC(=O)C[C@H](O4)[C@@H]3C)OC[C@H]2OC)O[C@@H](C)[C@@H](O)[C@@H]1OC the MLD [3] was > 13 mg/kg.

With C[C@H]1[C@@H]2CC(=O)O[C@H](/C=C/I)C(C)(C)[C@H]3C[C@@H](C)[C@](O)(O3)C(=O)C[C@H](C[C@@H]1O)O2 the MLD [3] was > 13 mg/kg.

In the case of CO[C@@H]1[C@H](O[C@@H]2[C@@H](OC)[C@H](O[C@H]3C[C@H]4CC(=O)[C@@]5(O)O[C@H](C[C@H]5C)C(C)(C)[C@@H](/C=C/C=C/C=C/C(C)C)OC(=O)C[C@H](O4)[C@@H]3C)OC[C@H]2OC)O[C@@H](C)[C@@H](O)[C@@H]1OC [polycavemoside A], the MLD [5] was 0.2 mg/kg.

Compound CO[C@@H]1[C@H](OC)[C@H](O[C@@H]2[C@@H](OC)[C@H](O[C@H]3C[C@H]4CC(=O)[C@@]5(O)O[C@H](C[C@H]5C)C(C)(C)[C@@H](/C=C/C=C/C(C)C)OC(=O)C[C@H](O4)[C@@H]3C)OC[C@H]2OC(C)=O)O[C@@H](C)[C@H]1OC [polycavernoside B] has an MLD [5] of 0.2 mg/kg.

Reference: ChEMBL document CHEMBL1131805, “Synthesis and biological evaluation of analogs of the marine toxin polycavernoside A” (Bioorg Med Chem Lett, 1999)
